The values below come from US20250136576A1, “Heterocyclic Compounds and Uses Thereof” (ACEA Therapeutics, Inc., priority 2021, published 2025).

Structures are written as SMILES.

The test system of the test is KM12-luc cells. Briefly: Cell proliferation and growth inhibition assay (CCK-8) in KM12-luc. The format is cell-based. The conditions noted are these: KM12-Luc, 72 h, KM12-luc cells, treated with test compounds for 72 hrs, CCK-8 viability; read-out: NTRK IC50 in KM12-luc. A digest of the protocol: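 IC50 values were fitted by sigmoidal dose-response non-linear regression of CCK-8 OD450 absorbance after 1-4 hrs with reagent. Culture media were IMDM for MV-4-11, RPMI 1640 for H1975 and DMEM for KM12-luc, each with 10% FBS at 37 °C, 5% CO2.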

A word on the IC50: it is the concentration that inhibits the measured activity by half. Take `CCN(CCN(C)C)c1ccc(Nc2ncc(C(F)(F)F)c(-c3cn(C)c4ccccc34)n2)cc1NC(C)=O` [Compound 309, N-(2-((2-(dimethylamino)ethyl)(ethyl)amino)-5-((4-(1-methyl-1H-indol-3-yl)-5-(trifluoromethyl)pyrimidin-2-yl)amino)phenyl)acetamide]: the IC50 amounted to 135 nM.
In the case of `CCN(CCN(C)C)c1ccc(Nc2ncc(C(F)(F)F)c(-c3cn(C)c4ccccc34)n2)cc1N` [Compound 310, N^1-(2-(dimethylamino)ethyl)-N^1-ethyl-N^4-(4-(1-methyl-1H-indol-3-yl)-5-(trifluoromethyl)pyrimidin-2-yl)benzene-1,2,4-triamine], the concentration for half-maximal inhibition (IC50) was 305 nM.
For `CC(=O)Nc1cc(Nc2ncc(C(F)(F)F)c(-c3cn(C)c4ccccc34)n2)c(F)cc1N(C)CCN(C)C` [Compound 313, N-(2-((2-(dimethylamino)ethyl)(methyl)amino)-4-fluoro-5-((4-(1-methyl-1H-indol-3-yl)-5-(trifluoromethyl)pyrimidin-2-yl)amino)phenyl)acetamide] the value was 308 nM; for `CC(=O)Nc1cc(Nc2ncc(C(F)(F)F)c(-c3cn(C)c4ccccc34)n2)ccc1N(CCN(C)C)C(C)=O` [Compound 314a, N-(2-acetamido-4-((4-(1-methyl-1H-indol-3-yl)-5-(trifluoromethyl)pyrimidin-2-yl)amino)phenyl)-N-(2-(dimethylamino)ethyl)acetamide], 63.2 nM; for `Cc1nc2cc(Nc3ncc(C(F)(F)F)c(-c4cn(C)c5ccccc45)n3)ccc2n1CCN(C)C` [Compound 314b, 1-(2-(dimethylamino)ethyl)-2-methyl-N-(4-(1-methyl-1H-indol-3-yl)-5-(trifluoromethyl)pyrimidin-2-yl)-1H-benzo[d]imidazol-5-amine], 139 nM.
As to `CC(=O)Nc1cc(Nc2ncc(C(F)(F)F)c(-c3cn(C)c4ccccc34)n2)ccc1OCCN(C)C` [Compound 315, N-(2-(2-(dimethylamino)ethoxy)-5-((4-(1-methyl-1H-indol-3-yl)-5-(trifluoromethyl)pyrimidin-2-yl)amino)phenyl)acetamide], the IC50 was 85.1 nM.
For the compound `CN(C)CCN(C)c1ccc(Nc2ncc(C(F)(F)F)c(-c3c[nH]c4cccc(F)c34)n2)cc1N` [Compound 317, N^1-(2-(dimethylamino)ethyl)-N^4-(4-(4-fluoro-1H-indol-3-yl)-5-(trifluoromethyl)pyrimidin-2-yl)-N^1-methylbenzene-1,2,4-triamine], the IC50 stood at 24.9 nM.
For `CCN(CCN(C)C)c1ccc(Nc2ncc(C(F)(F)F)c(-c3c[nH]c4cccc(F)c34)n2)cc1NC(C)=O` [Compound 318, N-(2-((2-(dimethylamino)ethyl)(ethyl)amino)-5-((4-(4-fluoro-1H-indol-3-yl)-5-(trifluoromethyl)pyrimidin-2-yl)amino)phenyl)acetamide] the value was 43.2 nM; for `CC(=O)Nc1cc(Nc2ncc(C(F)(F)F)c(-c3cn(C)c4cccc(F)c34)n2)ccc1N(C)CCN(C)C` [Compound 320, N-(2-((2-(dimethylamino)ethyl)(methyl)amino)-5-((4-(4-fluoro-1-methyl-1H-indol-3-yl)-5-(trifluoromethyl)pyrimidin-2-yl)amino)phenyl)acetamide], 91.1 nM; for `CC(=O)Nc1cc(Nc2ncc(C(F)(F)F)c(-c3c[nH]c4ccc(F)cc34)n2)ccc1N(C)CCN(C)C` [Compound 321, N-(2-((2-(dimethylamino)ethyl)(methyl)amino)-5-((4-(5-fluoro-1H-indol-3-yl)-5-(trifluoromethyl)pyrimidin-2-yl)amino)phenyl)acetamide], 14.8 nM.
For `CN(C)CCN(C)c1ccc(Nc2ncc(C(F)(F)F)c(-c3c[nH]c4ccc(F)cc34)n2)cc1N` [Compound 322, N^1-(2-(dimethylamino)ethyl)-N^4-(4-(5-fluoro-1H-indol-3-yl)-5-(trifluoromethyl)pyrimidin-2-yl)-N^1-methylbenzene-1,2,4-triamine] the value was 8.3 nM; for `CCN(CCN(C)C)c1ccc(Nc2ncc(C(F)(F)F)c(-c3c[nH]c4ccc(F)cc34)n2)cc1NC(C)=O` [Compound 323, N-(2-((2-(dimethylamino)ethyl)(ethyl)amino)-5-((4-(5-fluoro-1H-indol-3-yl)-5-(trifluoromethyl)pyrimidin-2-yl)amino)phenyl)acetamide], 18.9 nM.
`CCN(CCN(C)C)c1ccc(Nc2ncc(C(F)(F)F)c(-c3c[nH]c4ccc(F)cc34)n2)cc1N` [Compound 324, N^1-(2-(dimethylamino)ethyl)-N^1-ethyl-N^4-(4-(5-fluoro-1H-indol-3-yl)-5-(trifluoromethyl)pyrimidin-2-yl)benzene-1,2,4-triamine]: the IC50 amounted to 17.5 nM.
Consider `CC(=O)Nc1cc(Nc2ncc(C(F)(F)F)c(-c3cn(C)c4ccc(F)cc34)n2)ccc1N(C)CCN(C)C` [Compound 325, N-(2-((2-(dimethylamino)ethyl)(methyl)amino)-5-((4-(5-fluoro-1-methyl-1H-indol-3-yl)-5-(trifluoromethyl)pyrimidin-2-yl)amino)phenyl)acetamide], for which the IC50 came out at 39.4 nM.
Consider `CN(C)CCN(C)c1ccc(Nc2ncc(C(F)(F)F)c(-c3cn(C)c4ccc(F)cc34)n2)cc1N` [Compound 326, N^1-(2-(dimethylamino)ethyl)-N^4-(4-(5-fluoro-1-methyl-1H-indol-3-yl)-5-(trifluoromethyl)pyrimidin-2-yl)-N^1-methylbenzene-1,2,4-triamine], for which the IC50 is 58.2 nM.
For the compound `CN(C)CCN(C)c1ccc(Nc2ncc(C(F)(F)F)c(-c3cn(C)c4ccc(F)cc34)n2)cc1NCC(F)(F)F` [Compound 327, N^1-(2-(dimethylamino)ethyl)-N^4-(4-(5-fluoro-1-methyl-1H-indol-3-yl)-5-(trifluoromethyl)pyrimidin-2-yl)-N^1-methyl-N^2-(2,2,2-trifluoroethyl)benzene-1,2,4-triamine], the IC50 was 260 nM.
For `CC(=O)Nc1cc(Nc2ncc(C(F)(F)F)c(-c3c[nH]c4cc(F)ccc34)n2)ccc1N(C)CCN(C)C` [Compound 328a, N-(2-((2-(dimethylamino)ethyl)(methyl)amino)-5-((4-(6-fluoro-1H-indol-3-yl)-5-(trifluoromethyl)pyrimidin-2-yl)amino)phenyl)acetamide], the IC50 was 34.1 nM.
As for `CC(=O)Nc1cc(Nc2nc(-c3c[nH]c4cc(F)ccc34)ncc2C(F)(F)F)ccc1N(C)CCN(C)C` [Compound 328b, N-(2-((2-(dimethylamino)ethyl)(methyl)amino)-5-((2-(6-fluoro-1H-indol-3-yl)-5-(trifluoromethyl)pyrimidin-4-yl)amino)phenyl)acetamide], the IC50 was 2420 nM.
As for `CN(C)CCN(C)c1ccc(Nc2ncc(C(F)(F)F)c(-c3c[nH]c4cc(F)ccc34)n2)cc1N` [Compound 329, N^1-(2-(dimethylamino)ethyl)-N^4-(4-(6-fluoro-1H-indol-3-yl)-5-(trifluoromethyl)pyrimidin-2-yl)-N^1-methylbenzene-1,2,4-triamine], the IC50 is 72.1 nM.
As to `CCC(=O)Nc1cc(Nc2ncc(C(F)(F)F)c(-c3c[nH]c4cc(F)ccc34)n2)ccc1N(CC)CCN(C)C` [Compound 330a, N-(2-((2-(dimethylamino)ethyl)(ethyl)amino)-5-((4-(6-fluoro-1H-indol-3-yl)-5-(trifluoromethyl)pyrimidin-2-yl)amino)phenyl)propionamide], the IC50 came out at 292 nM.
On to `CCC(=O)Nc1cc(Nc2nc(-c3c[nH]c4cc(F)ccc34)ncc2C(F)(F)F)ccc1N(CC)CCN(C)C` [Compound 330b, N-(2-((2-(dimethylamino)ethyl)(ethyl)amino)-5-((2-(6-fluoro-1H-indol-3-yl)-5-(trifluoromethyl)pyrimidin-4-yl)amino)phenyl)propionamide], for which the half-inhibitory concentration (IC50) is greater than 3330 nM.
To `CCN(CCN(C)C)c1ccc(Nc2ncc(C(F)(F)F)c(-c3c[nH]c4cc(F)ccc34)n2)cc1NC(C)=O` [Compound 331a, N-(2-((2-(dimethylamino)ethyl)(ethyl)amino)-5-((4-(6-fluoro-1H-indol-3-yl)-5-(trifluoromethyl)pyrimidin-2-yl)amino)phenyl)acetamide] belongs 32.3 nM; to `CCN(CCN(C)C)c1ccc(Nc2nc(-c3c[nH]c4cc(F)ccc34)ncc2C(F)(F)F)cc1NC(C)=O` [Compound 331b, N-(2-((2-(dimethylamino)ethyl)(ethyl)amino)-5-((2-(6-fluoro-1H-indol-3-yl)-5-(trifluoromethyl)pyrimidin-4-yl)amino)phenyl)acetamide], 2020 nM.
To `CCN(CCN(C)C)c1ccc(Nc2ncc(C(F)(F)F)c(-c3c[nH]c4cc(F)ccc34)n2)cc1N` [Compound 332, N^1-(2-(dimethylamino)ethyl)-N^1-ethyl-N^4-(4-(6-fluoro-1H-indol-3-yl)-5-(trifluoromethyl)pyrimidin-2-yl)benzene-1,2,4-triamine] belongs 127 nM.
Consider `CC(=O)Nc1cc(Nc2ncc(C(F)(F)F)c(-c3cn(C)c4cc(F)ccc34)n2)ccc1N(C)CCN(C)C` [Compound 333, N-(2-((2-(dimethylamino)ethyl)(methyl)amino)-5-((4-(6-fluoro-1-methyl-1H-indol-3-yl)-5-(trifluoromethyl)pyrimidin-2-yl)amino)phenyl)acetamide], for which the IC50 was 28.5 nM.
As for `CCN(CCN(C)C)c1ccc(Nc2ncc(C(F)(F)F)c(-c3c[nH]c4c(F)cccc34)n2)cc1NC(C)=O` [Compound 336, N-(2-((2-(dimethylamino)ethyl)(ethyl)amino)-5-((4-(7-fluoro-1H-indol-3-yl)-5-(trifluoromethyl)pyrimidin-2-yl)amino)phenyl)acetamide], the IC50 worked out at 64.8 nM.
In the case of `CN(C)CCN(C)c1cc(F)c(Nc2ncc(C(F)(F)F)c(-c3c[nH]c4c(F)cccc34)n2)cc1N` [Compound 339, N^1-(2-(dimethylamino)ethyl)-5-fluoro-N^4-(4-(7-fluoro-1H-indol-3-yl)-5-(trifluoromethyl)pyrimidin-2-yl)-N^1-methylbenzene-1,2,4-triamine], the IC50 was 75.2 nM.
